Results published in US7674938B2, “Amino alcohol derivatives, pharmaceutical compositions containing the same, and use thereof” (Kissei Pharmaceutical Co., Ltd., priority 2003, dated 2010).
Where two headings read alike, the source gives them in different places.

Assays:
human β3-adrenoceptor = target: T1, human β3-adrenoceptor (Homo sapiens, UniProt P13945); assay: Agonistic activities on human β3-adrenoceptor (cAMP accumulation in SK-N-MC cells); format: cell-based; conditions: for β3 receptor I.A.: intrinsic activity: maximum reaction relative to isoproterenol maximum (100%); for EC50: read-out: β3 receptor EC50
T1 construct: SK-N-MC cells (American Type Culture Collection, 1×10^5 cell/mL) were put in 96 well plates; host or cells: SK-N-MC cells
Protocol: 1. Measurement of Agonistic Activities on Human β3-adrenoceptor
Test compounds were dissolved in 50% dimethyl sulfoxide to make a 10^−2 M solution. Then, a series of 1:10 dilutions containing a maximal dose of 1×10^−4 M were prepared using D-PBS (−) (Gibco-BRL: LIFE TECHNOLOGIES). The series were used for a testing sample to measure activity. SK-N-MC cells (American Type Culture Collection, 1×10^5 cell/mL) were put in 96 well plates by 100 μL and were cultured for about 24 hours. […] After that, 20 μL of 3-isobutyl-1-methylxanthine (SIGMA, 1×10^−2 mol/L D-PBS (−) solution) and 20 μL of testing sample were added in them and they were incubated under an atmosphere of 5% CO2 at 37° C. for 30 minutes. cAMP concentrations accumulated in cells were reacted in cAMP-Screen (Applied Biosystems) and were detected by Microplate LuminometerTR717 (Applied Biosystems).

human β2-adrenoceptor = target: T2, human β2-adrenoceptor (Homo sapiens, UniProt P07550); assay: Agonistic activities on human β2-adrenoceptor (cAMP in transfected CHO cells); format: cell-based; conditions: intrinsic activity: maximum reaction relative to isoproterenol maximum (100%)
T2 construct: expressed in transfected cells; host or cells: CHO cells
Text: (§1) 2. Measurement of Agonistic Activities on Human β1- and β2-adrenoceptors
(2) Human β2-adrenoceptor
The primer which added a restriction enzyme recognition region to 5′ end was designed on the basis of the base information that is registered with GenBank/EMBL data base as Accession No. M15169, and the clone was obtained by performance of PCR using human bladder origin cDNA as a template. The clone was inserted in top GEM-T vector and was amplified in Escherichia coli bacteria as a plasmid, and it was purified and the sequence of full length and around of insertion sequence determined by means of 310 Genetic Analyzer (ABI).
(2) Preparation of Human β2-adrenoceptor Expressed Cells
(§2) The plasmid (80 ng) for expression obtained in the previous section was transfected into […] suspended in DMEM containing 10% fetal bovine serum by means of Lipofectoamine2000. These cells were dispensed in 96 well plate by 5×10^4 cells/100 μL per well and were cultured under an atmosphere of 5% CO2 at 37° C. for 24 hours, and were used for the assay.
(§3) 3) Measurement of Agonistic Activities on Human β1- and β2-adrenoceptors
(§4) Test compounds were dissolved in 50% dimethyl sulfoxide to make a 10^−2 M solution. Then, a series of 1:10 dilutions containing a maximal dose of […] were prepared using D-PBS (−). The series were used for a testing sample to measure activity. The culture medium of CHO cells of previous section was removed and washed twice with 200 μL D-PBS (−) per well. After that, 50 μL of 3-isobutyl-1-methylxanthine (SIGMA, 1 mM) was added and leaved at rest for 5 minutes, and 50 μL of testing sample were added in them and they were incubated under an atomosphere of 5% CO2 at 37° C. for 30 minutes. cAMP concentrations accumulated in cells were reacted in cAMP-Screen and were detected by Microplate LuminometerTR717.

human β1-adrenoceptor = target: T3, human β1-adrenoceptor (Homo sapiens, UniProt P08588); assay: Agonistic activities on human β1-adrenoceptor (cAMP in transfected CHO cells); format: cell-based; conditions: for β1 receptor I.A.: intrinsic activity: maximum reaction relative to isoproterenol maximum (100%)
T3 construct: Both ends of a domain including full length of human β1-adrenoceptor were amplified; expressed in transfected cells; host or cells: CHO cells
Text: as §1
(1) Human β1-adrenoceptor
Both ends of a domain including full length of human β1-adrenoceptor were amplified on the basis of DNA base information that is registered with GenBank/EMBL data base as Accession No. J03019. DNA fragment which was amplified was inserted into a vector for cloning and amplified in Escherichia coli bacteria. The plasmid which was cloned was inserted into a vector pCI-neo (Promega) for protein expression and plasmid DNA was extracted and purified, then it was used for a preparation of the following expression cells.
(1) Preparation of Human β1-adrenoceptor Expressed Cells
as §2, with “(320” for “(80”, “expression which was” for “expression”, “DMEM (Gibco-BRL: LIFE TECHNOLOGIES)” for “DMEM”, “serum (Sanko Junyaku)” for “serum”, “Lipofectoamine2000 (Invitrogen).” for “Lipofectoamine2000.”
as §3, §4

β2-adrenoceptor = target: T4, β2-adrenoceptor (Rattus norvegicus, UniProt P10608); assay: β2-adrenoceptor stimulation in isolated tissue: inhibition of spontaneous contraction of pregnant rat uterus (Magnus method); design: species or system SD rat; conditions: read-out: β2 receptor EC50
T4 construct: The uterus of pregnant SD rat (Day 21 of gestation) was isolated and longitudinal muscle strip; from tissue; host or cells: pregnant SD rat uterus, longitudinal muscle strip
Protocol: 3) Measurement of β2-adrenoceptor Stimulation
The uterus of pregnant SD rat (Day 21 of gestation) was isolated and longitudinal muscle strip, which was avoided placenta attached part, about 15 mm in length and 5 mm in width was taken and the experiment was conducted according to a Magnus method. The preparation was suspended in a Locke-Ringer solution maintained at 37° C. and gassed with a mixed gas of 95% O2 and 5% CO2 and stretched at a tension of 0.5 g. Spontaneous contraction of uterus was outputted through an isometric force transducer and recorded on an oscillograph through a tachometer. The test compound was added cumulatively into a Magnus bath by every 5 minutes. Potencies were evaluated that the sum of uterine contraction for 5 minutes before the addition of test compounds was taken as a 100%, and compared with the sum of uterine contraction for 5 minutes after the addition of each concentration of test compounds. […] (R)-3′-[[2-[[2-(3-chlorophenyl)-2-hydroxyethyl]-aminoethoxy]-[1,1′-biphenyl]-3-carboxylic acid which was described in example 17 on WO99/65877 was also examined as a comparison example.

β1-adrenoceptor = target: T5, β1-adrenoceptor (Rattus norvegicus, UniProt P18090); assay: β1-adrenoceptor stimulation in isolated tissue: heart rate increment of rat atrium (Magnus method); design: species or system SD rat; conditions: read-out: β1 receptor EC50
T5 construct: The atrium of male SD rat (body weight 250-400 g) was isolated; from tissue; host or cells: SD rat atrium
Protocol: 2) Measurement of β1-adrenoceptor Stimulation
The atrium of male SD rat (body weight 250-400 g) was isolated and the experiment was conducted according to a Magnus method. The preparation was suspended in a Krebs-Henseleit solution maintained at 37° C. and gassed with a mixed gas of 95% O2 and 5% CO2 and stretched at a tension of 0.5 g. The myocardial contractility was outputted through an isometric force transducer and recorded on an oscillograph through a tachometer. The test compound was added cumulatively into a Magunus bath.

ddY mice adipocytes = assay: Lipolysis in ddY mice adipocytes (free fatty acid release); format: cell-based; conditions: Mus musculus, Adipocyte, 2 h; read-out: Lipolysis acticity EC50 value
Protocol: Epididymal fat tissue of ddY mice (body weight 35 g) was removed and isolated to cells by collagenase (typeI, 1 mg/ml) in a culture medium (Krebs-Henseleit solution inclusive of 3% BSA, 1.2 mM CaCl2 and 25 mM HEPES but exclusive of NaHCO3; pH7.4) maintained at 37° C. After rinsing the cells in the culture medium, 50,000 cells/well were seeded in a 96-well culture plate and were incubated at 37° C. in the presence of various concentration of test compounds. Two hours later, the concentration of free fatty acid in the culture medium was measured and it was made as an index for lipolysis. The concentration of free fatty acid was measured by means of NEFA C-test wako (WAKO).
(R)-3′-[[2-[[2-(3-chlorophenyl)-2-hydroxyethyl]amino-ethoxy]-[1,1′-biphenyl]-3-carboxylic acid which was described in example 17 on WO99/65877 was also examined as a comparison example.

[1] = Transport study using human intestinal epithelium tissue (Caco-2); format: in vitro ADME; conditions: inside (pH 6.0) to outside (pH 7.4), 37° C., read-out: permeability coefficient Caco-2 Papp
Protocol: 1) Preparation of Culture Medium.
Dulbecco's modified Eagle's medium (Invitrogen Life Technologies) containing 1% fetal bovine serum (Sanko Jyunyaku), 1% MEM-nonessential amino acids, […] L-glutamine (Invitrogen Life Technologies), 1% penicillin—streptomycin 10000 units/mL-10000 μg/mL (Invitrogen Life Technologies) was prepared and used as a culture medium.
Caco-2 cells (American Type Culture Collection) were subcultured in a culture flask containing the culture medium.
After removing the culture medium before the cell reaches confluent, Caco-2 cells were washed with Hank's balanced salt solution Ca, Mg Free (Invitrogen Life Technologies).
The culture medium in the inside and outside compartments of the Traswell chamber was removed and replaced by a buffer solution containing 10 mM MES (pH 6.0) or 10 mM HEPES (pH7.4). The medium volume in the inside and outside compartments of the chamber was made at 0.1 mL (pH 6.0) and 0.5 mL (pH 7.4), respectively. The medium of the inside compartment was replaced by a buffer solution (pH 6.0) containing test compounds. For evaluating the transport of the test compounds from the inside compartment to the outside compartment, 100 μL of the outside buffer was sampled after incubating at 37° C. for 1 hr.
The apparent permeability coefficient was calculated as the following equation. The amounts of the test compounds in the outside buffer sampled were divided by incubation time. In addition, the amounts of penetration per incubation time (second) were divided by the concentration of the added test compound and the membrane surface.
[formula] • Papp is apparent permeability coefficient. (×10^−6 cm/sec) • dQ/dt is amount of penetration per incubation time. • Co is the initial concentration. (100 μM) • A is the membrane surface area. (0.33 cm^2) • The concentrations of test compounds were determined using LC/MS/MS.

T3 sequence (P08588 whole entry): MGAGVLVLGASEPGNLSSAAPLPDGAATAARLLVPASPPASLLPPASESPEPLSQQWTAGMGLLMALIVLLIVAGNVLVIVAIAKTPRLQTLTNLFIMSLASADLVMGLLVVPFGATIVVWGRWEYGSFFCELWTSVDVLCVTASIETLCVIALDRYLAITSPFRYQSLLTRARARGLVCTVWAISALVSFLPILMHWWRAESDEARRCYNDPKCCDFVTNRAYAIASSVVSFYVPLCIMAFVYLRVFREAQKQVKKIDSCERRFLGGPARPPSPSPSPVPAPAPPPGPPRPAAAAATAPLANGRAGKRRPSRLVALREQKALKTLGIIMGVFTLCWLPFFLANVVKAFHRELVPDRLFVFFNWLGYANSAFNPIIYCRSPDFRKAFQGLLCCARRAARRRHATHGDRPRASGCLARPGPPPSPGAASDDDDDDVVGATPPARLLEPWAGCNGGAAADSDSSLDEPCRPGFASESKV
T5 sequence (P18090 whole entry): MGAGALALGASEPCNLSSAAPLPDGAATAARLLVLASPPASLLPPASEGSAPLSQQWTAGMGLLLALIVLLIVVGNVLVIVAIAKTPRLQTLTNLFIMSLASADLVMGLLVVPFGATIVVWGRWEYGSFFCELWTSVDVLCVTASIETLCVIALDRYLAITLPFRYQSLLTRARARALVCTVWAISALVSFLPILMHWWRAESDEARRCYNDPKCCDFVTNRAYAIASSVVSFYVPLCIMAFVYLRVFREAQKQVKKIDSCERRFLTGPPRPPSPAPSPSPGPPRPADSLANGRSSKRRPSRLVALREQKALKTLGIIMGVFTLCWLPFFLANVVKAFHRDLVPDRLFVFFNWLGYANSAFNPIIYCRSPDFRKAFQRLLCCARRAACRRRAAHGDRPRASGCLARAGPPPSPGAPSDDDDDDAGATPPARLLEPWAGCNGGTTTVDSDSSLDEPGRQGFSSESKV
T1 sequence (P13945 whole entry): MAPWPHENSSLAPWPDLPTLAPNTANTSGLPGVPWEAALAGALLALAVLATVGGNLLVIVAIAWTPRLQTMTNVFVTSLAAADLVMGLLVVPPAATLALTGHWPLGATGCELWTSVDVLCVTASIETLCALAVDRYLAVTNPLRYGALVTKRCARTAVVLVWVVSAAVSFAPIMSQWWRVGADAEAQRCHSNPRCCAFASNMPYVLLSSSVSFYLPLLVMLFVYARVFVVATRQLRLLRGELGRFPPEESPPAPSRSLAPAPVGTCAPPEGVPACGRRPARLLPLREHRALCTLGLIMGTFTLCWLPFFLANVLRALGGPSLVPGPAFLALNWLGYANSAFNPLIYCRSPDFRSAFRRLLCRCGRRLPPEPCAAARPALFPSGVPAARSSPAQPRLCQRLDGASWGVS
T2 sequence (P07550 whole entry): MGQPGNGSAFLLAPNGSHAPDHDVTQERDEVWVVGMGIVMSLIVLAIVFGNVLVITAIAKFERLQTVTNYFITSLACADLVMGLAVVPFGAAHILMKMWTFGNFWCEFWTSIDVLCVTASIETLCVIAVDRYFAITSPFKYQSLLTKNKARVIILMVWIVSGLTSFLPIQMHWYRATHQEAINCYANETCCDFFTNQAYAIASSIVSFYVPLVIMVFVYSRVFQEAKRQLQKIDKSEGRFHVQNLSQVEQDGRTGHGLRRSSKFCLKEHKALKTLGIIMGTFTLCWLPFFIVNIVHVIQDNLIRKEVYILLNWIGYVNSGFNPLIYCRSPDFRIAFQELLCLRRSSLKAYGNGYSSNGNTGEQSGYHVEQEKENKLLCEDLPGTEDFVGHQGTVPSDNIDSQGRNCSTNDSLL
T4 sequence (P10608 whole entry): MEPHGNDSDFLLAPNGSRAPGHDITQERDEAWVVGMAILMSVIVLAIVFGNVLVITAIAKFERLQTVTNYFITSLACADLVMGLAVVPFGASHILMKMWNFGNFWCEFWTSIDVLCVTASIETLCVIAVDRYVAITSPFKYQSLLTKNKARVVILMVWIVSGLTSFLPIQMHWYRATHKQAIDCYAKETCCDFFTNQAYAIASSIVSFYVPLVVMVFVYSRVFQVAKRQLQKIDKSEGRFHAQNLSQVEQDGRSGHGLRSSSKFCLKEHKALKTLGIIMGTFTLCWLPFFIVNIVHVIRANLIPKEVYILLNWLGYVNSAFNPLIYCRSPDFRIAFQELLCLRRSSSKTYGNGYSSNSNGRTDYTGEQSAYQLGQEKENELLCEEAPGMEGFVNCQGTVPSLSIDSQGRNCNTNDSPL

| Structure (SMILES) | β3 receptor I.A. (human β3-adrenoceptor) | EC50 (human β3-adrenoceptor) | β2 receptor I.A. (human β2-adrenoceptor) | EC50 (human β1-adrenoceptor; CHO cells expressing human β1-adrenoceptor, cAMP, 50% of isoproterenol maximum, read-out: β1 receptor EC50) | β1 receptor I.A. (human β1-adrenoceptor) | EC50 (β2-adrenoceptor) | EC50 (ddY mice adipocytes) | Papp at 1 h, 100 μM [1] | Emax (human β1-adrenoceptor; CHO, read-out: β1 receptor EC50) | EC50 (human β1-adrenoceptor; read-out: β1 receptor EC50) | EC50 (β1-adrenoceptor) |
| --- | --- | --- | --- | --- | --- | --- | --- | --- | --- | --- | --- |
| O=C(O)c1cccc(-c2cccc(OCCNC[C@H](O)c3cccc(Cl)c3)c2)c1 [Comparison, reference compound] | 41% | > 10000 nM | 15% | 740 nM | 60% | > 10000 nM | > 1000 nM | – | – | – | 1880 nM |
| Cc1cc(C(=O)O)ccc1-c1cc(C)c(OCCN[C@@H](C)[C@H](O)c2ccc(O)cc2)c(C)c1 [Compound 3, 4′-{2-[(1S,2R)-2-Hydroxy-2-(4-hydroxyphenyl)-1-methylethyl-amino]ethoxy}-2,3′,5′-trimethylbiphenyl-4-carboxylic acid] | – | – | – | – | – | – | – | 19.9 ×10⁻⁶ cm/s | – | – | – |
| Cc1cc(-c2ccc(C(=O)O)c(C(C)C)c2)cc(C)c1OCCN[C@@H](C)[C@H](O)c1ccc(O)cc1 [Compound 4, 4′-{2-[(1S,2R)-2-Hydroxy-2-(4-hydroxyphenyl)-1-methylethyl-amino]ethoxy}-3-isopropyl-3′,5′-dimethylbiphenyl-4-carboxylic acid] | 94% | 240 nM | 27% | – | 45% | – | – | 15.7 ×10⁻⁶ cm/s | < 50% | – | – |
| CCCc1cc(C(=O)O)ccc1-c1cc(C)c(OCCN[C@@H](C)[C@H](O)c2ccc(O)cc2)c(C)c1 [Compound 26] | 125% | 57 nM | 49% | – | 74% | – | 11.2 nM | – | – | 2280 nM | – |

Now from value to compound, other results behind:

| β3 receptor I.A. (human β3-adrenoceptor) | EC50 (human β3-adrenoceptor) | β2 receptor I.A. (human β2-adrenoceptor) | EC50 (human β1-adrenoceptor; CHO cells expressing human β1-adrenoceptor, cAMP, 50% of isoproterenol maximum, read-out: β1 receptor EC50) | β1 receptor I.A. (human β1-adrenoceptor) | EC50 (β2-adrenoceptor) | EC50 (ddY mice adipocytes) | Papp at 1 h, 100 μM [1] | Emax (human β1-adrenoceptor; CHO, read-out: β1 receptor EC50) | EC50 (human β1-adrenoceptor; read-out: β1 receptor EC50) | Structure (SMILES) | EC50 (β1-adrenoceptor) |
| --- | --- | --- | --- | --- | --- | --- | --- | --- | --- | --- | --- |
| 97% | 480 nM | 28% | – | 57% | 2680 nM | – | – | – | 4320 nM | CCc1cc(C(=O)O)ccc1-c1ccc(OCCN[C@@H](C)[C@H](O)c2ccc(O)cc2)cc1 [Compound 153, 2-Ethyl-4′-{(1S,2R)-2-[2-hydroxy-2-(4-hydroxyphenyl)-1-methylethylamino]ethoxy}biphenyl-4-carboxylic acid] | > 10000 nM |
| 239% | 25 nM | 27% | – | 87% | 5870 nM | 19.5 nM | 3.4 ×10⁻⁶ cm/s | – | 18900 nM | CC(C)c1cc(C(=O)O)ccc1-c1ccc(OCCN[C@@H](C)[C@H](O)c2ccc(O)cc2)cc1 [Compound 156] | > 10000 nM |
| 91% | 200 nM | 32% | – | 62% | – | – | 4 ×10⁻⁶ cm/s | – | 790 nM | CCCc1cc(C(=O)O)ccc1-c1ccc(OCCN[C@@H](C)[C@H](O)c2ccc(O)cc2)cc1 [Compound 160] | – |
| 100% | – | – | – | – | – | – | – | – | – | CC(C)NCC(O)c1ccc(O)c(O)c1 (centres unmarked) [Isoproterenol, reference compound] | – |
